# Laboratory results taken from ChEMBL document CHEMBL5226289, “Discovery of natural anti-inflammatory alkaloids: Potential leads for the drug discovery for the treatment of inflammation” (Eur J Med Chem, 2021).
# Key:
# [1] = target: T1, Prostaglandin G/H synthase 2 (Homo sapiens, UniProt P35354); assay: Inhibition of COX-2 (unknown origin) by colorimetric analysis
# T1 sequence (P35354 whole entry): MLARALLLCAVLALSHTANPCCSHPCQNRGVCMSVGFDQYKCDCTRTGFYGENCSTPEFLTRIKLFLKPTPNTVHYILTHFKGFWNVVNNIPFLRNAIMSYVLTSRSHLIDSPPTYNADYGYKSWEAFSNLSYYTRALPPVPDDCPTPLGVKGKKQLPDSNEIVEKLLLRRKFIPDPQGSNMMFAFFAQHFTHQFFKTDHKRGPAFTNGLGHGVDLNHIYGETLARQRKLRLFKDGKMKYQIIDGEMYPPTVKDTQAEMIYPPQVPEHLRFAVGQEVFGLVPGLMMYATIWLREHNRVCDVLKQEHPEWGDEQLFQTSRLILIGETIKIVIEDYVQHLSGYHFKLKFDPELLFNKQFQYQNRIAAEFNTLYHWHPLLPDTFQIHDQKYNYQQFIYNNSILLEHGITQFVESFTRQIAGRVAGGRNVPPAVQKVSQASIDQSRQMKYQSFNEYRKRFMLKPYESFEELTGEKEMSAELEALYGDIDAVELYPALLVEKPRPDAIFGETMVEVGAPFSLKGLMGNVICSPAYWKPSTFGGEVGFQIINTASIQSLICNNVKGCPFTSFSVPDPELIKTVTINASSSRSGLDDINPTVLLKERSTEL
# [2] = target: Prostaglandin G/H synthase 1 (Homo sapiens, UniProt P23219); assay: Inhibition of COX-1 (unknown origin) by colorimetric analysis
# [3] = Antiinflammatory activity in rat polymorphonuclear leucocyte cells assessed as inhibition of PAF-induced beta-glucuronidase release at 10 uM preincubated for 20 mins followed by PAF addition relative to control; assay type: functional
# RAW264.7 [4] = assay: Antiinflammatory activity against mouse RAW264.7 cells assessed as inhibition of cell growth; assay type: functional, cell-based
# J774.1 = assay: Inhibition of NO production in LPS-stimulated mouse J774.1 cells; assay type: functional, cell-based
# Mus musculus [5] = assay: Antiinflammatory activity in mouse assessed as inhibition of xylene-induced ear edema at 5 mg/kg, IG pre-treated for 30 mins followed by xylene administration and measured after 1 hrs relative to control; assay type: functional; settings: po, time 1.5 hrs
# RAW264.7 [6] = assay: Antiinflammatory activity against LPS-stimulated mouse RAW264.7 cells assessed as reduction in COX-2 protein expression at 10 uM relative to control; assay type: functional; design: scale not given: the % may be the effect or the level left
# RAW264.7 [7] = assay: Antiinflammatory activity against LPS-stimulated mouse RAW264.7 cells assessed as reduction in iNOS protein expression at 10 uM relative to control; assay type: functional; design: scale not given: the % may be the effect or the level left
# RAW264.7 [8] = assay: Inhibition of NO production in LPS-stimulated mouse RAW264.7 cells preincubated with compound for 30 mins followed by LPS stimulation and measured after 24 hrs by Griess reagent-based assay; assay type: functional, cell-based
# Rattus norvegicus = assay: Antiinflammatory activity in Wistar rat assessed as inhibition of carrageenan-induced hind paw edema at 50 mg/kg, po pre-treated for 1 hrs followed by carrageenan administration and measured after 3 hrs by plethysmometer relative to control; assay type: functional; settings: time 4 hrs
# HT-1080 [9] = assay: Antiinflammatory activity in human HT-1080 cells assessed as inhibition of TNF-alpha production; assay type: functional
# HT-1080 [10] = assay: Antiinflammatory activity in human HT-1080 cells assessed as inhibition of IL-6 production; assay type: functional
# [11] = target: T2, Polyunsaturated fatty acid 5-lipoxygenase (Homo sapiens) (UniProt P09917); assay: Inhibition of 5-LOX (unknown origin) at 100 uM measured after 5 mins by colorimetric method relative to control
# T2 sequence (whole entry): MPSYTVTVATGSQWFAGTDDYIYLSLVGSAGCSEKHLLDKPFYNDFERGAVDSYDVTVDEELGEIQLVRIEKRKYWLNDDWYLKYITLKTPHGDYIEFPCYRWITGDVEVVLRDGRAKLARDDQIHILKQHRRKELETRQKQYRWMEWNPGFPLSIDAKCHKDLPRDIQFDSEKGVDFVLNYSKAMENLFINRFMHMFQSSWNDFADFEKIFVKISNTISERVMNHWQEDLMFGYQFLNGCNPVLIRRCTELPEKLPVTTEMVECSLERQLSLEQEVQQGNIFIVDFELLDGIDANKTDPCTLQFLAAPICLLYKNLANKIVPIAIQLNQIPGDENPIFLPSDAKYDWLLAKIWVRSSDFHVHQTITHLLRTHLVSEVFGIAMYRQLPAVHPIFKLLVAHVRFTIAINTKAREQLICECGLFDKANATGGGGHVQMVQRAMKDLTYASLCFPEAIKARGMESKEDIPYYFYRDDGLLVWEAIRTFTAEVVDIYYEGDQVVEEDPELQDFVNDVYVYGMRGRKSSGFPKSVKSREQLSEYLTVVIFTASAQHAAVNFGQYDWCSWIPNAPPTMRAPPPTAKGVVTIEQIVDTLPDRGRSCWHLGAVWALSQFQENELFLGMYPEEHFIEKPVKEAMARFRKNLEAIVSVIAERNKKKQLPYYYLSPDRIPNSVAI
# Mus musculus [12] = assay: Antiinflammatory activity in mouse assessed as inhibition of xylene-induced ear edema at 8 mg/kg, ip pre-treated for 30 mins followed by xylene administration and measured after 1 hrs relative to control; assay type: functional; settings: time 1.5 hrs
# THP-1 [13] = assay: Antiinflammatory activity in human THP-1 cells assessed as inhibition of TNF-alpha production; assay type: functional
# THP-1 [14] = assay: Antiinflammatory activity in human THP-1 cells assessed as inhibition of IL-6 production; assay type: functional
# RAW264.7 [15] = assay: Antiinflammatory activity in mouse RAW264.7 cells assessed as inhibition of LPS-stimulated iNOS activity preincubated with compound for 24 hrs followed by LPS stimulation for 2 hrs and measured 2 hrs after NADPH addition by fluorescence based assay; assay type: functional, cell-based
# RAW264.7 [16] = assay: Inhibition of NO production in LPS-stimulated mouse RAW264.7 cells preincubated with compound for 24 hrs followed by LPS stimulation and measured after 2 hrs by Griess reagent-based assay; assay type: functional, cell-based
# Mus musculus [17] = assay: Prevention of LPS-induced mortality in C57BL/6 mouse model at 30 mg/kg, ip measured after 5 days relative to control; assay type: functional; settings: time 5 day
# RAW264.7 [18] = assay: Inhibition of NO production in LPS-stimulated mouse RAW264.7 cells preincubated with compound for 3 hrs followed by LPS stimulation and measured after 20 hrs by Griess reagent-based assay; assay type: functional, cell-based
# Prostaglandin G/H synthase 1, sequence (P23219 whole entry): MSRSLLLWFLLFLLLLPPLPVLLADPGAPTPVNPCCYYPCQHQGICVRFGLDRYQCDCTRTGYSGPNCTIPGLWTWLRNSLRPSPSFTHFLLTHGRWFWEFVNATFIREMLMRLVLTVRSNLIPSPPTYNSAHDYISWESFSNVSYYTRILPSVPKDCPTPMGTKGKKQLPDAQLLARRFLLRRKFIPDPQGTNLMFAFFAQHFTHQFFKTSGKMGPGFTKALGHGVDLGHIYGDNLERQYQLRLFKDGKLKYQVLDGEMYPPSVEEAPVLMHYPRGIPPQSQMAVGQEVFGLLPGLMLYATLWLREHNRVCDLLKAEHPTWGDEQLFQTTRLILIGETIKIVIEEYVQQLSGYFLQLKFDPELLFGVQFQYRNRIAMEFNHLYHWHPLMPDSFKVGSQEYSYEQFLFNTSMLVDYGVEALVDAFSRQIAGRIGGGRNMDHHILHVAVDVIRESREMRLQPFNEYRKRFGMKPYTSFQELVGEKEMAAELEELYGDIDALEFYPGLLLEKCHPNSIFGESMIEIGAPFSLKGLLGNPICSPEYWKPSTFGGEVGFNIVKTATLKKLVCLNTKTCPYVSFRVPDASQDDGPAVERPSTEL
smiles,measurement,setting,value
CC(C)CC(=O)NC[C@H](O)CC[C@@H](CO)NC(=O)c1nc2ccccc2cc1O,IC50,[1],2.1 µM
same,IC50,[2],7.6 µM
COC1O[C@@H]([C@@H]2c3cc4c(cc3CCN2C)OCO4)c2ccc3c(c21)OCO3 (stereo partly specified),inhibition at 10 µM,[3],35.6%
COC(=O)[C@@]1(O)C2=Nc3c(O)cccc3[C@@]23C[C@H]2C[C@]4(C(C)=O)ON2[C@H]3C[C@H]14,IC50,RAW264.7 [4],39.6 µM
same,IC50,J774.1,49.2 µM
COC(=O)C1=C2Nc3c(O)cccc3[C@@]23CCN2C[C@@H]([C@H](C)O)[C@@H]1C[C@H]23 [SCHOLARICINE],inhibition in vivo at 5 mg/kg,Mus musculus [5],42%
CSc1[nH]c2cc(Br)c(Br)c(Br)c2c1SC,Activity,RAW264.7 [6],1.6%
same,Activity,RAW264.7 [7],2.8%
O=C(C1C=CC(c2ccc3c(c2)OCO3)C(/C=C/c2ccc3c(c2)OCO3)C1C(=O)N1CCCCC1)N1CCCCC1 (stereo unspecified),IC50,RAW264.7 [8],6.8 µM
COc1ccc2c(OC)c3ccoc3nc2c1 [EVOLITRINE],inhibition in vivo at 50 mg/kg,Rattus norvegicus,62%
Cc1cc(=O)c2c(O)c([C@H]3CCN(C)C[C@H]3O)c(O)cc2o1,inhibition (INH),HT-1080 [9],47%
same,inhibition (INH),HT-1080 [10],83%
C/C=C1/CN2CC[C@@H]1[C@@](CO)(C(=O)OC)c1[nH]c3ccccc3c1C2,inhibition,[11],60.8%
same,inhibition in vivo at 8 mg/kg,Mus musculus [12],40.3%
CC(=O)O[C@H]1CN(C)CC[C@H]1c1c(O)cc(O)c2c(=O)cc(C)oc12,inhibition (INH),THP-1 [13],81.1%
same,inhibition (INH),THP-1 [14],20.5%
C=CC(C)(C)c1[nH]c2cc3c(cc2c1/C=C1\NC(=O)[C@@H]2CCCN2C1=O)C=CC(C)(C)O3,IC50,RAW264.7 [15],5.4 µM
same,IC50,RAW264.7 [16],11.2 µM
COc1ccc2c(c1)[nH]c1c(/C=C/C(=O)O)nccc12,Activity,Mus musculus [17],12.5%
COc1c(O)ccc2c1cnc1c3cc4c(cc3ccc21)OCO4 [DECARINE],IC50,RAW264.7 [8],48.4 µM
C=C1C=C2C=C[C@H](OC)C[C@@]23c2cc4c(cc2[C@@H](O)CN13)OCO4,IC50,RAW264.7 [18],3.4 µg/mL
